Structures can show the parent of a compound that is named as a salt.

The target of experiment [1] is muscarinic receptors (3H-OXO-M site, cerebral cortex). The experiment can be described thus: Radio ligand binding: displacement of muscarinic agonist 3H-Oxotremorine-M (3H-OXO-M), rat cerebral cortex membranes. On the set-up: species or system Hooded Lister rats. As to conditions: 2 nM 3H-OXO-M, 2mM magnesium chloride, tris buffer pH 7.7, 37° C., 30 min.
The target in experiment [2] is muscarinic receptors (3H-QNB site, cerebral cortex). It counts as binding, Hooded Lister rats. The note with it: 0.27nM 3H-QNB, tris buffer pH 7.7, 37° C., 30 min; rat cerebral cortex.

With `Nc1noc(C23CCCN(C2)C3)n1` [Example E1, 5-(3-Amino-1,2,4-oxadiazol-5-yl)-1-azabicyclo[3.1.11]heptane], the half-maximal inhibitory concentration (IC50) (in general, the concentration at which inhibition is half-maximal) in experiment [1] was determined as 11 nM; in experiment [2], 11000 nM.
For `Cc1noc(C23CCCN(C2)C3)n1` [Example E2, 5-(3-Methyl-1,2,4-oxadiazol-5-yl)-1-azabicyclo[3.1.1]heptane oxalate salt], the IC50 in experiment [1] was 15 nM; in experiment [2], 5000 nM.
Regarding `c1ncc(C23CCCN(C2)C3)o1` [Example E3, 5-(1,3-Oxazol-5-yl)-1-azabicyc[3.1.1]heptane oxalate salt], the figures for the IC50 in experiment [1] and in experiment [2] were 37 nM and 6250 nM, respectively.
For the molecule `c1coc(C23CCCN(C2)C3)n1` [Example E4, 5-(1,3-Oxazol-2-yl)-1-azabicvclo[3.1.1]heptane oxalate salt], the IC50 in experiment [1] amounted to 540 nM; in experiment [2] it was 60000 nM.
Take `CCc1noc(C23CCCN(C2)C3)n1` [Example E5, 5-(3-Ethyl-1.2.4-oxadiazol-5-yl)-1-azabicyclo[3.1.11]-heptane oxalate salt]: the IC50 was 71 nM in experiment [1] and 5200 nM in experiment [2].
`CCCc1noc(C23CCCN(C2)C3)n1` [Example E6, 5-(3-Propyl-1,2,4-oxadiazol-5-yl)-1-azabicyclo[3.1.11]heptane oxalate salt]: the IC50 in experiment [1] worked out at 40 nM; in experiment [2], 1700 nM.
For `C1CN2CC(c3nc(C4CC4)no3)(C1)C2` [Example E7, 5-(3-Cyclopropyl-1,2,4-oxadiazol-5-yl)-1-azabicyclo-[3.1.1]heptane oxalate salt], the results for the IC50 in experiment [1] and in experiment [2] were 62 nM and 580 nM, respectively.
Consider `CCCCc1noc(C23CCCN(C2)C3)n1` [Example E8, 5-(3-Butyl-1,2,4-oxadiazol-5-yl)-1-azabicyclo[3.1.11]heptane oxalate salt], for which the IC50 was found to be 49 nM in experiment [1] and 1950 nM in experiment [2].
Take `COCc1noc(C23CCCN(C2)C3)n1` [Example E9, 5-(3-Methoxymethyl-1,2,4-oxadiazol-5-yl)-1-azabicyclo-[3.1.11]heptane oxalate salt]: the IC50 in experiment [1] was 178 nM; in experiment [2], 13000 nM.
Turning to `CCCCCc1noc(C23CCCN(C2)C3)n1` [Example E10, 5-(3-Pentyl-1,2,4-oxadiazol-5-yl)-1-azabicyclo[3.1.1]heptane oxalate salt], the figures for the IC50 in experiment [1] and in experiment [2] were 141 nM and 2400 nM, respectively.
For the molecule `C/C=C/Cc1noc(C23CCCN(C2)C3)n1` [Example E11, E-5-(3-But-2-enyl-1,2,4-oxadiazol-5-yl)-1-azabicyclo-[3.1.11]heptane oxalate salt], the IC50 in experiment [1] came to 165 nM; in experiment [2] it was 1850 nM.
As to `Cc1nnc(C23CCCN(C2)C3)o1` [Example E13, 5-(2-Methyl-1,3,4-oxadiazol-5-yl)-1-azabicyclo[3 1.1]heptane oxalate salt], the IC50 in experiment [1] was determined as 207 nM; in experiment [2], 16500 nM.
In the case of `CO/N=C/C12CCCN(C1)C2` [Example E14, oxalate salt], the results for the IC50 in experiment [1] and in experiment [2] were 109 nM and 24000 nM, respectively.
Regarding `CON=C(C)C12CCCN(C1)C2` [Example E15, E and Z-5-Acetyl-1-azabicyclo[3.1.1]heptane O-methyloxime oxalate salt], the figures for the IC50 in experiment [1] and in experiment [2] were 290 nM and 58000 nM, respectively.

Values taken from patent publication US5043343A (priority 1989, dated 1991).
